Assay results reported in patent US20120015907A1, “Furopyridine compounds and uses thereof” (NOVARTIS AG, priority 2010, published 2012).

Biological target: T1, HCV polymerase (Hepatitis C virus genotype 1b, UniProt Q9WMX2)
T1 construct: (His)6 (C)
Assay: biochemical
Conditions: polymerase assay of Biological Example 1; read-out: NS5B polymerase IC50

IC50	SMILES
0.037 µM	CNC(=O)c1c(-c2ccc(C)cc2C)oc2nc(N(CCCCC(=O)O)S(C)(=O)=O)c(C3CC3)cc12 [Example 29.99996, 5-(N-(5-cyclopropyl-2-(2,4-dimethylphenyl)-3-(methylcarbamoyl)furo[2,3-b]pyridin-6-yl)methylsulfonamido) pentanoic acid]
0.058 µM	CCc1cc2c(C(=O)NC)c(-c3ccc(F)cc3)oc2nc1N(CCCN(C)C(C)=O)S(C)(=O)=O [Example 23.997, 5-ethyl-2-(4-fluorophenyl)-N-methyl-6-(N-(3-(N-methylacetamido)propyl)methylsulfonamido)furo[2,3-b]pyridine-3-carboxamide]
0.007 µM	CNC(=O)c1c(-c2ccc(C)cc2)oc2nc(N(CCCC3(C(=O)O)CCN(C(=O)C(C)(C)C)CC3)S(C)(=O)=O)c(C3CC3)cc12 [Example 29.999992, 4-(3-(N-(5-cyclopropyl-3-(methylcarbamoyl)-2-p-tolylfuro[2,3-b]pyridin-6-yl)methylsulfonamido)propyl)-1-pivaloylpiperidine-4-carboxylic acid]
0.002 µM	CCc1ccc(-c2oc3nc(N(CCCC(C)C(=O)O)S(C)(=O)=O)c(C4CC4)cc3c2C(=O)NC)cc1 (stereo not shown) [Example 29.9995, 5-(N-(5-cyclopropyl-2-(4-ethylphenyl)-3-(methylcarbamoyl)furo[2,3-b]pyridin-6-yl)methylsulfonamido)-2-methylpentanoic acid]
0.352 µM	CCc1cc2c(C(=O)NC)c(-c3ccc(F)cc3)oc2nc1N(CCCOc1ccccc1OC)S(C)(=O)=O [Example 21.92, 5-ethyl-2-(4-fluorophenyl)-6-(N-(3-(2-methoxyphenoxy)propyl)methylsulfonamido)-N-methylfuro[2,3-b]pyridine-3-carboxamide]
0.103 µM	C=CCCN(c1nc2oc(-c3ccc(F)cc3)c(C(=O)NC)c2cc1I)S(C)(=O)=O [Example 18.3, 6-(N-(but-3-enyl)methylsulfonamido)-2-(4-fluorophenyl)-5-iodo-N-methylfuro[2,3-b]pyridine-3-carboxamide]
0.007 µM	CNC(=O)c1c(-c2ccc(C)cc2)oc2nc(N(CCCCCCCCC(=O)O)S(C)(=O)=O)c(C3CC3)cc12 [Example 29.992, 9-(N-(5-cyclopropyl-3-(methylcarbamoyl)-2-p-tolylfuro[2,3-b]pyridin-6-yl)methylsulfonamido) nonanoic acid]
0.012 µM	CNC(=O)c1c(-c2ccc(C)cc2)oc2nc(N(CCCC(CC(=O)O)OCCOC)S(C)(=O)=O)c(C3CC3)cc12 (stereo not shown) [Example 29.999996, 6-(N-(5-cyclopropyl-3-(methylcarbamoyl)-2-p-tolylfuro[2,3-b]pyridin-6-yl)methylsulfonamido)-3-(2-methoxyethoxy) hexanoic acid]
0.155 µM	CCc1cc2c(C(=O)NC)c(-c3ccc(F)cc3)oc2nc1N(CCC1CCN(C(=O)OC(C)(C)C)CC1)S(C)(=O)=O [Example 21.995, tert-butyl 4-(2-(N-(5-ethyl-2-(4-fluorophenyl)-3-(methylcarbamoyl)furo[2,3-b]pyridin-6-yl)methylsulfonamido)ethyl)piperidine-1-carboxylate]
0.007 µM	CCc1cc2c(C(=O)NC)c(-c3ccc(F)cc3)oc2nc1N(CCCC(C)(C)C(=O)O)S(C)(=O)=O [Example 21.4, 5-(N-(5-ethyl-2-(4-fluorophenyl)-3-(methylcarbamoyl)furo[2,3-b]pyridin-6-yl)methylsulfonamido)-2,2-dimethylpentanoic acid]
0.002 µM	CNC(=O)c1c(-c2ccc(C)cc2)oc2nc(N(CCCCC#N)S(C)(=O)=O)c(C3CC3)cc12 [Example 29.6, 6-(N-(4-cyanobutyl)methylsulfonamido)-5-cyclopropyl-N-methyl-2-p-tolylfuro[2,3-b]pyridine-3-carboxamide]
0.003 µM	CNC(=O)c1c(-c2ccc(C)cc2)oc2nc(N(CCCC(CC(=O)O)OC)S(C)(=O)=O)c(C3CC3)cc12 (stereo not shown) [Example 29.999994, 6-(N-(5-cyclopropyl-3-(methylcarbamoyl)-2-p-tolylfuro[2,3-b]pyridin-6-yl)methylsulfonamido)-3-methoxyhexanoic acid]
0.004 µM	CNC(=O)c1c(-c2ccc(C)cc2)oc2nc(N(CCC3CCCC3C(=O)O)S(C)(=O)=O)c(I)cc12 (stereo not shown) [Example 18.999, 2-(2-(N-(5-iodo-3-(methylcarbamoyl)-2-p-tolylfuro[2,3-b]pyridin-6-yl)methylsulfonamido)ethyl)cyclopentanecarboxylic acid]
0.004 µM	CNC(=O)c1c(-c2ccc(C)cc2)oc2nc(N(CCCO)S(C)(=O)=O)c(C3CC3)cc12 [Example 23.99997, 5-cyclopropyl-6-(N-(3-hydroxypropyl)methylsulfonamido)-N-methyl-2-p-tolylfuro[2,3-b]pyridine-3-carboxamide]
0.016 µM	CNC(=O)c1c(-c2ccc(C)cc2)oc2nc(N(CCCCN)S(C)(=O)=O)c(C3CC3)cc12 [Example 23.999993, 6-(N-(4-aminobutyl)methylsulfonamido)-5-cyclopropyl-N-methyl-2-p-tolylfuro[2,3-b]pyridine-3-carboxamide]
0.03 µM	CNC(=O)c1c(-c2ccccc2)oc2nc(N(C)S(C)(=O)=O)c(C3CC3)cc12 [Example 2.8, 5-cyclopropyl-N-methyl-6-(N-methylmethylsulfonamido)-2-phenylfuro[2,3-b]pyridine-3-carboxamide]
0.008 µM	CNC(=O)c1c(-c2ccc(C)cc2)oc2nc(N(CCc3ccccc3C(=O)O)S(C)(=O)=O)c(C3CC3)cc12 [Example 45, 2-(2-(N-(5-cyclopropyl-3-(methylcarbamoyl)-2-(p-tolyl)furo[2,3-b]pyridin-6-yl)methylsulfonamido)ethyl)benzoic acid]
0.005 µM	CCOC(=O)/C=C/CCCN(c1nc2oc(-c3ccc(C)cc3)c(C(=O)NC)c2cc1C1CC1)S(C)(=O)=O [Example 44.1, (E)-ethyl 6-(N-(5-cyclopropyl-3-(methylcarbamoyl)-2-p-tolylfuro[2,3-b]pyridin-6-yl)methylsulfonamido)hex-2-enoate]
0.688 µM	CCc1cc2c(C(=O)NC)c(-c3ccc(F)cc3)oc2nc1N(CCOCCOC)S(C)(=O)=O [Example 21.8, 5-ethyl-2-(4-fluorophenyl)-6-(N-(2-(2-methoxyethoxy)ethyl)methylsulfonamido)-N-methylfuro[2,3-b]pyridine-3-carboxamide]
0.053 µM	CCc1cc2c(C(=O)NC)c(-c3ccc(F)cc3)oc2nc1N(CCOc1ccc(C(=O)OC)cc1)S(C)(=O)=O [Example 22.7, methyl 4-(2-(N-(5-ethyl-2-(4-fluorophenyl)-3-(methylcarbamoyl)furo[2,3-b]pyridin-6-yl)methylsulfonamido)ethoxy)benzoate]
0.044 µM	CCc1cc2c(C(=O)NC)c(-c3ccc(F)cc3)oc2nc1N(CCCS(=O)(=O)C(C)(C)C)S(C)(=O)=O [Example 23.93, 6-(N-(3-(tert-butylsulfonyl)propyl)methylsulfonamido)-5-ethyl-2-(4-fluorophenyl)-N-methylfuro[2,3-b]pyridine-3-carboxamide]

SMILES	IC50
CNC(=O)c1c(-c2ccc(C)cc2)oc2nc(N(CCCC3(C(=O)O)CCN(C(=O)OC(C)(C)C)CC3)S(C)(=O)=O)c(C3CC3)cc12 [Example 29.9996, 1-(tert-butoxycarbonyl)-4-(3-(N-(5-cyclopropyl-3-(methylcarbamoyl)-2-p-tolylfuro[2,3-b]pyridin-6-yl)methylsulfonamido)propyl) piperidine-4-carboxylic acid]	0.117 µM
